# Source: patent publication US6599927B2, “Use of an H+, K+-ATPase inhibitor in the treatment of Widal's Syndrome” (AstraZeneca AB, priority 1996, dated 2003)
# Entries after “also recorded” stand apart in the source; their conditions may differ.
# Tested on: nasal polyps
# Experiment: Two week treatment of nine patients with omeprazole, intranasal budesonide and oral deflazacort (Examples 2 to 10)
# Assay type: in vivo, human
# Conditions: two weeks, 20 mg omeprazole, 100 μg intranasal budesonide, 3 to 15 mg oral deflazacort
# Method: Nine patients, each with the conditions shown in the following Table 1, were treated during a two week period. The treatment consisted of 20 mg of omeprazole, 100 μg of intranasal budesonide and 3 to 15 mg of oral deflazacort (deflazacort was used in such a small quantity to ensure the patients' compliance).
smiles,measurement,setting,value
COc1ccc2[nH]c([S+]([O-])Cc3ncc(C)c(OC)c3C)nc2c1 (stereo not drawn) [omeprazole],Result,patient with Nasal Polyposis and aspirin intolerance (Example 9),Positive effect
same,Result,patients with Nasal Polyposis (Examples 5-8),Positive effect; also recorded: Long term benefit
same,Result,patients with Widal's Syndrome (Examples 2-4),Temporary benefit; also recorded: Positive effect
